The target in one assay is T1, CDK12/cyclin K + DDB1 (Homo sapiens, UniProt Q16531+Q9NYV4, DEL396-705).
T1 construct: The kinase domain of human CDK12 (Uniprot: Q9NYV4; a.a; 715–1050); GST (N, cleaved yes); made in house; host or cells: Spodoptera frugiperda SF9 insect cells (Bac-to-Bac); CDK12/cyclin K co-infected with S. cerevisiae CAK1
Description: Microscale thermophoresis, ternary complex formation. It is filed as binding. The conditions noted are these: MST. The protocol:
Finally, the capacity of small molecules to induce a ternary complex between CDK12/cyclin K and DDB1 in vitro was assessed by microscale thermophoresis (MST). Labeled DDB1ΔBPB was combined with purified CDK12/cyclin K, and fluorescence intensity was monitored with increasing compound concentrations.
Cell pellets were harvested 48 hours post infection via centrifugation and lysed in buffer A (50 mM Tris–HCl (pH 8.0), 200 mM NaCl, 10 mM imidazole, 0.5 mM tris(2-carboxyethyl) phosphine (TCEP)) supplemented with EDTA-free Pierce™ protease inhibitor tablet (Thermo Fisher Scientific). […] The concentrated protein at 2 mg mL^−1 was flash-frozen in liquid nitrogen and stored at −80 °C.
Full-length S. cerevisiae CAK1 (Uniprot: P43568) with an N-terminal His6 tag was subcloned into pFastBac 1 vector. […] The eluted CDK12/cyclin K complex was concentrated to 2 mg mL^−1, flash-frozen in liquid nitrogen and stored at −80 °C.
A protocol to assess ternary binding of molecular glues with CDK12/cycK and DDB1 by MST was established using published procedures for PROTAC interaction with bromodomains and E3 ubiquitin ligases.[38] His8-DDB1-ΔBPB was labeled with the MO-L018 Monolith™ His-tag Labeling Kit RED-tris-NTA 2nd Generation (NanoTemper Technologies) following the instruction manual. 100 nM dye was mixed with 200 nM DDB1 in 50 mM HEPES pH 7.5, 150 mM NaCl, 5% glycerol, 0.05% Tween, and incubated at room temperature for 30 min. […] MST traces were recorded using standard parameters: 5 s MST power off, 30 s MST power on and 5 s MST power off. Measurements were taken at −1 to 0 s (cold region) and 9–10 s (hot region). Data were analyzed using a fitting function derived from the law of mass action:1 [drawing 6] where f(c) is the fluorescence signal (Fnorm) at a given ligand concentration (c), B is Fnorm of fully liganded DDB1 at high ligand concentrations, U is Fnorm of DDB1 alone at low ligand concentrations, Kd is the dissociation constant or binding affinity, cT is the final concentration of DDB1 in the assay (Fig. 3G). For normalization, the data were first transformed using eqn (2) where y is the fraction bound, followed by fitting to eqn (3) (Fig. 5B–E).2 [drawing 7] 3 [drawing 8]
A general note: In MST a laser heats a spot of the sample, and binding alters the fluorescence response.

The subject of assay [1] is cyclin K. Nature of the assay: Immunofluorescence of nuclear cyclin K in MDA-MB-231 cells. In kind it is cell-based, human. As for the experimental part:
Cells were fixed with 4% PFA in PBS at room temperature, permeabilized with 0.1% Triton X-100 in PBS, and blocked with 3% BSA in PBS at room temperature. Cells were incubated with primary antibodies overnight at 4 °C, followed by incubation with Alexa-Fluor conjugated secondary antibodies for 1 hour at room temperature. Cell nuclei were stained using DAPI. Images were acquired on a confocal microscope (Leica). ImageJ and QuPath were used for image analysis.
Figure S8. Immunofluorescence staining for cyclin K degradation. MDA-MB-231 cells were
treated for 2 h with either DMSO or the indicated compounds (0.5 µM) . Cells were fixed and
Nuclei were stained with DAPI (blue). […]

The subject of the next assay is MDA-MB-231 cells. Nature of the assay: CellTiter-Glo viability assay, WT MDA-MB-231. In kind it is cell-based. The conditions noted are these: Homo sapiens; wild type MDA-MB-231; read-out: EC50 (WT) cell viability. The text has this:
MDA-MB-231 (human triple-negative breast cancer cells) and HEK293T (human embryonic kidney cells) were purchased from the American type culture collection (ATCC) and maintained in Dulbecco's modified Eagle's medium (DMEM) (Gibco) supplemented with 10% (v/v) heat-inactivated fetal bovine serum (FBS) (Gibco) and penicillin/streptomycin (100 U mL^−1 each). HiBiT-CCNK KI A549 cells, purchased from Promega, were maintained in F12 medium supplemented with 10% (v/v) heat-inactivated fetal bovine serum (FBS) (Gibco) and penicillin/streptomycin (100 U mL^−1 each). DDB1-knockdown MDA-MB-231 and DDB1-knockdown HEK293T cell lines were maintained in the same media formulation as their corresponding wild-type cell lines. All cell lines were cultured at 37 °C in an incubator with CO2 levels maintained at 5%.
(§1) Cell viability was measured by Cell Titer Glo assay kit (Promega, USA). EC50 was determined from the nonlinear regression and a four-parameter algorithm on the GraphPad Prism software.

In assay [2] the test system is MDA-MB-231DDB1-shRNA cells. Description: CellTiter-Glo viability assay, MDA-MB-231 DDB1-shRNA. It is filed as cell-based, human. The conditions noted are these: Homo sapiens; MDA-MB-231 DDB1-shRNA; read-out: EC50 (DDB1 shRNA) cell viability.
Source text: For stable genetic knock-down of DDB1 in cells, predesigned and validated TRC2-pLKO-puro shRNA plasmids for DDB1 (TRCN0000082855 and TRCN0000082856), and a non-targeting shRNA plasmid (SHC001) were obtained from Millipore Sigma. All plasmids were purified using the Qiagen Maxiprep kit (Qiagen). FuGENE HD 6 transfection reagent (Promega) was used for transfection of plasmids and lentiviral gene/shRNA constructs. Mission lentiviral packaging mix (Millipore Sigma) was used to package lentiviral plasmids into lentiviral particles in HEK293T cells, as per manufacturer's protocols. The resultant virus was concentrated using Vivaspin 20 centrifugal concentrators (Sartorius). MDA-MB-231 and HEK293T cells were transduced with lentivirus. Stable knocked down DDB1 (shDDB1-231 and shDDB1-HEK293T) cells were generated after selection with the antibiotic puromycin, and genetic knockdown was confirmed by western blotting.
as §1

For assay [3], the system named is cyclin K. Nature of the assay: Immunoblot of cyclin K levels in MDA-MB-231 cells. It is filed as cell-based, human. The conditions noted are these: SR-4835 500 nM, SR-4784 1-2 μM 2 hours, SR-4784-PAP 2 μM 2 hours. As for the experimental part:
THZ531 was used as a negative control as it is known to make a covalent bond with Cys1039 in a C-terminal extension of the kinase domain, thereby preventing this helix-loop-helix (HLH)-like fold from binding in a cleft between the DDB1 BPA and BPC domains (Fig. 1B, right panels). […] An immunofluorescence-based assay developed for visualizing loss of nuclear cyclin K also confirmed the above observations (Fig. 1H and Fig. S1, ESI ^†).
Total cell lysates were prepared using RIPA lysis buffer (Millipore Sigma) supplemented with protease and phosphatase inhibitors (Roche). Protein concentrations were estimated using the BCA protein assay kit (Pierce, Thermo Fisher Scientific). Equal amounts of proteins were separated using NuPAGE 4–12% Bis-Tris gels (Thermo Fisher Scientific). For CLICK chemistry pulldown experiments, proteins in the eluates were resolved using 3–8% Tris–acetate gels (Thermo Fisher Scientific). Proteins were transferred to nitrocellulose membranes using NuPAGE transfer buffer (Thermo Fisher Scientific). Membranes were blocked in LI-COR blocking buffer for 1 hour at room temperature and then probed with primary antibodies diluted in the same blocking buffer overnight at 4 °C. To detect the primary antibodies, membranes were incubated with IR-680 or IR-800 conjugated secondary antibodies (LI-COR) diluted in LI-COR blocking buffer at room temperature for 1 hour. Washes with 0.01% Tween-phosphate buffer were performed after primary and secondary antibody incubation steps. Signals from the membrane were recorded by scanning on a LI-COR Odyssey imager. Bands were quantified using Image Studio Lite (LI-COR Biosciences) or the ImageJ program.
To visualize the degradation of cyclin K, total cell lysates were subjected to SDS-PAGE and western blotting.

Where [4] appears, read: labeled DDB1 + CDK12/cyclin K, run #1, read-out: Kd ternary complex formation, replicate #1.
Where [5] appears, read: labeled DDB1 + CDK12/cyclin K, run #2, read-out: Kd ternary complex formation, replicate #2.
The mark [6] stands for this setting: labeled DDB1 + CDK12/cyclin K, run #3, read-out: Kd ternary complex formation, replicate #3.
The mark [7] stands for this setting: labeled DDB1ΔBPB 10 nM + CDK12/cyclin K 1000 nM, mean of replicates, read-out: Kd ternary complex formation (average).

Like-named read-outs stand apart in the source and are kept apart here.

T1 sequence (Q16531 with tags, fused parts or gaps DEL396-705): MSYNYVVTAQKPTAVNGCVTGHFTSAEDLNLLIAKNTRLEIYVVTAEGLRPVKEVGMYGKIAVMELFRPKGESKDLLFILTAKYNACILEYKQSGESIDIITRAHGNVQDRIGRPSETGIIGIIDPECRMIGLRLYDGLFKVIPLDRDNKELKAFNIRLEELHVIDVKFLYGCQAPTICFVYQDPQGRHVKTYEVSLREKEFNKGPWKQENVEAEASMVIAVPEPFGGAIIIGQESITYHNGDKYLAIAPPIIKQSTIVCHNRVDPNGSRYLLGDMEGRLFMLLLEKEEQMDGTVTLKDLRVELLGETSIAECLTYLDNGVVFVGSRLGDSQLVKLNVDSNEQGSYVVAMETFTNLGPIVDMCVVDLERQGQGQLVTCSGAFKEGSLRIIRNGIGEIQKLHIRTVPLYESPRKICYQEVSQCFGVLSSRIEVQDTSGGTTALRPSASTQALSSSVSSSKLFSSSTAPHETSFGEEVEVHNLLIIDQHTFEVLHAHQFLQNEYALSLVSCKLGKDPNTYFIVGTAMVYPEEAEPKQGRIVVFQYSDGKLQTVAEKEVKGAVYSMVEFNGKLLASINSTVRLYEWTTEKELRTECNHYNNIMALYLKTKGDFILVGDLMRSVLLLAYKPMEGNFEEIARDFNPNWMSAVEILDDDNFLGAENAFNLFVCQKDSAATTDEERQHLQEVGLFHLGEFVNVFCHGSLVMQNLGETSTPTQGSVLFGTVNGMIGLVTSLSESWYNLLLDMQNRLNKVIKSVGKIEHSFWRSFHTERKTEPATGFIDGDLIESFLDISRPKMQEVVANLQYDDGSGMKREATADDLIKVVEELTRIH
T1 sequence (Q9NYV4 715-1050, stated change not applied): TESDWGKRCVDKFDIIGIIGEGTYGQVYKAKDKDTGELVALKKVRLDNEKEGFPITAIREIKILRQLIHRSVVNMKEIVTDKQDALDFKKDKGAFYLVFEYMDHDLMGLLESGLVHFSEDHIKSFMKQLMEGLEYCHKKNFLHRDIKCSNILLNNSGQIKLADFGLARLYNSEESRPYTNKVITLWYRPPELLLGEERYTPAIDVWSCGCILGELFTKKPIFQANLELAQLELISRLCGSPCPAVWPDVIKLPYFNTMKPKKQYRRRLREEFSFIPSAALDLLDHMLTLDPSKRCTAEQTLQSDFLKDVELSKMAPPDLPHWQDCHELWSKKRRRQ
T1 sequence (O75909 11-267 partner limits assumed): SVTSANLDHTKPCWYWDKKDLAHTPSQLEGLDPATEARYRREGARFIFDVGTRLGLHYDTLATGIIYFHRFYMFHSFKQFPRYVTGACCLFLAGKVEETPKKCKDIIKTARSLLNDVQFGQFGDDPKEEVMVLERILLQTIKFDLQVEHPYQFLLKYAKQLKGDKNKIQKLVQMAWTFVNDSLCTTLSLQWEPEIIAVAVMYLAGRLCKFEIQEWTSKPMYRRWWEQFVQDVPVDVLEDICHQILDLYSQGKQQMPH

As to `Cn1cc(-c2cnn3c(NCc4nc5cc(Cl)c(Cl)cc5[nH]4)nc(N4CCOCC4)nc23)cn1` [MR-1014, N-((5,6-Dichloro-1H-benzo[d]imidazol-2-yl)methyl)-8-(1-methyl-1H-pyrazol-4-yl)-2-morpholinopyrazolo[1,5-a][1,3,5]triazin-4-amine], the Kd (commonly the constant that tells how readily two partners part at equilibrium) on CDK12/cyclin K + DDB1 (setting [4]) was 409 ± 117 nM; on CDK12/cyclin K + DDB1 (setting [5]), 347 ± 98.3 nM; on CDK12/cyclin K + DDB1 (setting [6]), 528 ± 295 nM; on CDK12/cyclin K + DDB1 (setting [7]), 428 nM. Besides, the “cyclin K nuclear intensity compared to control” value in the assay on cyclin K [1] (MDA-MB-231 cells, 0.5 µM, 2 h) is reported as “reduced”.
In the case of `Clc1cccc2nc(CNc3cc(N4CCNCC4)nn4c(-c5ccsc5)cnc34)[nH]c12` [MR-1110, N-((7-Chloro-1H-benzo[d]imidazol-2-yl)methyl)-6-(piperazin-1-yl)-3-(thiophen-3-yl)imidazo[1,2-b]pyridazin-8-amine], the Kd on CDK12/cyclin K + DDB1 (setting [4]) turned out to be 24.3 ± 9 nM; at CDK12/cyclin K + DDB1 (setting [5]), 31.3 ± 17.4 nM; at CDK12/cyclin K + DDB1 (setting [6]), 37.6 ± 23.3 nM; at CDK12/cyclin K + DDB1 (setting [7]), 31.1 ± 6.7 nM. The “cyclin K nuclear intensity compared to control” value with cyclin K [1] (MDA-MB-231 cells, 0.5 µM, 2 h) was “reduced”.
For `CN1CC=C(c2cn3c(-c4cnn(C(F)F)c4)cnc3c(NCc3nc4cc(Cl)c(Cl)cc4[nH]3)n2)CC1` [MR-1187, N-((5,6-Dichloro-1H-benzo[d]imidazol-2-yl)methyl)-3-(1-(difluoromethyl)-1H-pyrazol-4-yl)-6-(1-methyl-1,2,3,6-tetrahydropyridin-4-yl)imidazo[1,2-a]pyrazin-8-amine] the same measures were 137 ± 33.3 nM, 122 ± 54.6 nM, 152 ± 63.7 nM, 137 ± 15 nM and “reduced”.
As for `Cn1cc(-n2cnc3c(NCc4nc5cc(Cl)c(Cl)cc5[nH]4)nc(N4CCNCC4)nc32)cn1` [SR-4784, N-((5,6-dichloro-1H-benzo[d]imidazol-2-yl)methyl)-9-(1-methyl-1H-pyrazol-4-yl)-2-(piperazin-1-yl)-9H-purin-6-amine], the EC50 – broadly, the concentration needed to bring the measured effect to its halfway point – was determined as 263 nM in the assay on MDA-MB-231 cells and 796 nM in assay [2]. For the same compound, the “cyclin K degradation (immunoblot)” value with cyclin K [3] is “induced cyclin K degradation”.
For `C#CCCC1(CCC(=O)N2CCN(c3nc(NCc4nc5cc(Cl)c(Cl)cc5[nH]4)c4ncn(-c5cnn(C)c5)c4n3)CC2)N=N1` [SR-4784-PAP, 3-(3-(But-3-yn-1-yl)-3H-diazirin-3-yl)-1-(4-(6-(((5,6-dichloro-1H-benzo[d]imidazol-2-yl)methyl)amino)-9-(1-methyl-1H-pyrazol-4-yl)-9H-purin-2-yl)piperazin-1-yl)propan-1-one], the “cyclin K degradation (immunoblot)” value with cyclin K [3] is given as “degraded cyclin K in a proteasome-dependent manner”.
In the case of `CCc1cnn2c(NCc3ccc[n+]([O-])c3)cc(N3CCCC[C@H]3CCO)nc12` [dinaciclib, reference compound], the “ability to induce ternary complex” value at CDK12/cyclin K + DDB1 (labeled DDB1ΔBPB + CDK12/cyclin K) was “lacked the ability to induce a ternary complex”. In the assay on cyclin K [1], the “cyclin K nuclear intensity compared to control” value was “not affected”.

The values are drawn from PMC11494886, “Discovery and design of molecular glue enhancers of CDK12–DDB1 interactions for targeted degradation of cyclin K” (RSC Chemical Biology, 2024).
